Experimental data reported in US20140249167A1, “Administration of NEDD8-Activating Enzyme Inhibitor” (priority 2010, published 2014).
Entries after “also recorded” stand apart in the source; their conditions may differ.

Assays:
Format in all cases: in vivo
[1] = tested on: adults with advanced nonhematologic malignancies (solid tumors); assay: Study C15001, phase 1, four 21-day dose schedules; settings: for Findings: Prolonged stable disease in (tumor, cycles): as of Oct. 16, 2011; for DLTs occurred (Grade 3 LFTs): in vivo
Procedure: Study C15001 is a first-in-human, phase 1 study in adults with advanced nonhematologic malignancies testing the tolerability of four 21-day dose schedules, including the following: Schedule A: QD×5; Schedule B: Days 1, 3, and 5 given with dexamethasone; and Schedule C: Days 1, 3, and 5 given without dexamethasone. Dose escalation is based on an adaptive approach using the continual reassessment method (CRM).
Schedule A (QD×5) testing started with 25 mg/m^2 and proceeded through 83 mg/m^2. Increases in liver function tests (LFTs) (AST, ALT, ALP and bilirubin) occurred during Cycle 1 following both single and multiple MLN4924 doses. LFT increases were dose limiting at doses exceeding 50 mg/m^2. Grade 3 and 4 LFT elevations occurred in 2 patients, who both died during the first week of study treatment. One death occurred in a patient with widely metastatic breast cancer receiving 61 mg/m^2, and the second occurred in a patient with advanced colon cancer receiving 83 mg/m^2. In both cases, the investigators assessed the hepatic toxicity as possibly related to MLN4924. As a result of these deaths and their association with increases in transaminase and bilirubin, all ongoing MLN4924 studies were amended to require that bilirubin levels be normal (<ULN) and that ALT and AST levels correspond with […] Grade 1 intensity before administering initial and all subsequent doses of MLN4924. LFTs are checked prior to administration of every dose.
The MTD for Study C15001 Schedule A was determined to be 50 mg/m^2 QD×5. […] Three DLTs have occurred on Schedule B (Grade 3 LFTs), and 2 DLTs have occurred on Schedule C (Grade 3 LFTs). The MTD for these dosing schedules was determined to be 50 mg/m^2 and 67 mg/m^2, respectively. […]
Study C15001 is a phase 1 study in adults with advanced nonhematologic malignancies testing the tolerability of four 21-day dose schedules, including one intermittent dosing schedule, Schedule D, on which doses are administered on Days 1, 8, and 15 as a 3-hour infusion. As of Oct. […] Patients have been enrolled to the following dose levels: 147 mg/m^2 and 196 mg/m^2. Testing continues, and dose escalation is based on an adaptive approach using the continual reassessment method (CRM). […]

[2] = tested on: adults with lymphoma or multiple myeloma; assay: Study C15002, phase 1, 3 dose schedules on a 21-day cycle
From the text: Study C15002 is a phase 1 study in adults with lymphoma or multiple myeloma testing 3 dose schedules, each repeated on a 21-day cycle. One such schedule is Schedule A: Days 1, 2, 8, and 9.
As used herein, “dose-limiting toxicity” (DLT) is defined as any of the following events that are considered by the administering physician to be related to therapy with MLN4924: • Grade 4 neutropenia (ANC<500 cells/mm^3) lasting more than 7 consecutive days • Grade 3 neutropenia with fever and/or infection, where fever is defined as an oral temperature[…] • Grade 4 thrombocytopenia (platelets<25,000/mm^3 but >10,000/mm^3) lasting more than 7 consecutive days • Grade 3 thrombocytopenia with bleeding • A platelet count<10,000/mm^3 at any time • Grade 3 or greater nausea and/or emesis despite the use of optimal anti-emetic prophylaxis (wherein “optimal anti-emetic prophylaxis” is defined as an anti-emetic regimen that employs a 5-HT3 antagonist given in standard doses and according to standard schedules). Dexamethasone should not be used because of its CYP3A-inducing effects. • Grade 3 or greater diarrhea that occurs despite maximal supportive therapy • An absolute reduction in LVEF of ≧10% to a value<50% (e.g., LVEF=45% in a patient with LVEF=55% at baseline) • A decrease in LVEF to <40% • An increase in PASP to >50 mm Hg or 3× baseline • Any other Grade 3 or greater nonhematologic toxicity with the following exceptions: • Grade 3 arthralgia/myalgia • Brief (<1 week) Grade 3 fatigue • Grade 3 fever that occurs in the absence of Grade 3 or worse neutropenia or documented infection following daily administration of MLN4924 • Treatment delay of more than 1 week because of a lack of adequate recovery of MLN4924-related hematological or nonhematologic toxicities • MLN4924-related toxicity that requires that any doses of MLN4924 are missed during a cycle or discontinuation of therapy with MLN4924
Study C15002 is a phase 1 study in adults with lymphoma or multiple myeloma testing 3 dose schedules, each repeated on a 21-day cycle. Two such schedules are intermittent dosing schedules, Schedule B: Days 1, 4, 8, and 11; and Schedule C: Days 1 and 8. As of Oct. […] Patients on Schedule B were enrolled to dose levels of 110 mg/m^2, 147 mg/m^2, 196 mg/m^2 and 261 mg/m^2 before the MTD was determined to be 196 mg/m^2. […]
(§1) Although DLTs can occur at any point during treatment, only DLTs occurring during Cycle 1 of treatment will necessarily influence decisions regarding dose escalation, expansion of a dose level, or evaluation of intermediate dose levels. Patients are monitored through all cycles of therapy for treatment-related toxicities.

[3] = tested on: adults with acute myelogenous leukemia and myelodysplastic syndrome; assay: Study C15003, phase 1, 3 dose schedules on a 21-day cycle
[4] = tested on: adults with metastatic melanoma; assay: Study C15005, phase 1 dose-escalation study
Procedure: As used herein, “dose-limiting toxicity” (DLT) is defined as any of the following events that are considered by the administering physician to be related to therapy with MLN4924: • Grade 4 neutropenia (ANC<500 cells/mm^3) lasting more than 7 consecutive days • Grade 3 neutropenia with fever and/or infection, where fever is defined as an oral temperature[…] • Grade 4 thrombocytopenia (platelets<25,000/mm^3 but >10,000/mm^3) lasting more than 7 consecutive days • Grade 3 thrombocytopenia with bleeding • A platelet count<10,000/mm^3 at any time • Grade 3 or greater nausea and/or emesis despite the use of optimal anti-emetic prophylaxis (wherein “optimal anti-emetic prophylaxis” is defined as an anti-emetic regimen that employs a 5-HT3 antagonist given in standard doses and according to standard schedules). […]
Study C15005 is a phase 1, dose-escalation study in adults with metastatic melanoma testing MLN4924 dosing on Days 1, 4, 8, and 11 (Schedule A) or Days 1, 8 and 15 (Schedule B) repeated every 21 days. […] Patients were enrolled to dose levels of 50 mg/m^2, 67 mg/m^2, 89 mg/m^2, 118 mg/m^2, 157 mg/m^2, 209 mg/m^2 and 278 mg/m^2 before the MTD was determined to be 209 mg/m^2. […]
as §1

[5] = Schedule B: Days 1, 4, 8, 11, at 147 mg/m^2

NS(=O)(=O)OC[C@@H]1C[C@@H](n2ccc3c(N[C@H]4CCc5ccccc54)ncnc32)C[C@@H]1O [MLN4924, ((1S,2S,4R)-4-(4-((1S)-2,3-dihydro-1H-inden-1-ylamino)-7H-pyrrolo[2,3-d]-pyrimidin-7-yl)-2-hydroxycyclopentyl)methyl sulfamate]
Doses at which LFT increases were dose limiting ([1]; Schedule A (QD×5), Cycle 1, AST, ALT, ALP and bilirubin): exceeding 50 mg/m^2 | Grade 3 and 4 LFT elevations, patients who both died during first week of treatment ([1]; Schedule A, one at 61 mg/m^2, one at 83 mg/m^2): 2 patients | Dose, MTD not reached (→) ([1]; Schedule D: Days 1, 8, 15, 3-hr infusion, 21-day cycle, solid tumors): ≥ 196 mg/m^2 | Findings: Prolonged stable disease in (tumor, cycles) ([1]; Schedule D: Days 1, 8, 15, 3-hr infusion): Colon cancer (6+ cycles); also recorded: NSCLC^5 (5+ cycles) | Findings: Prolonged stable disease in (tumor, cycles) ([1]; Schedules A, B, C (findings cell spans the three schedules)): Melanoma (7, 7, 10 cycles); also recorded: SCLC^5 (7 cycles),; also recorded: CRC^5 (5, 5, 9 cycles),; also recorded: Breast (5, 7 cycles); also recorded: Head and Neck (7 cycles) | DLTs occurred (Grade 3 LFTs) ([1]; human, 21 days): 2 | DLTs occurred (Grade 3 LFTs) [1]: Three DLTs | Findings ([2]; Schedule A: Days 1, 2, 8, 9, Hodgkin's Lymphoma (7 cycles)): Partial remission in Hodgkin's | Adverse event in one patient (did not contribute to definition of MTD) ([2]; Schedule A, 110 mg/m^2 expansion cohort): Grade 3 AST and ALT elevation | DLTs observed ([2]; Schedule B: Days 1, 4, 8, 11, as of Oct. 7, 2011): no DLTs have been observed | DLTs ([2]; Schedule C: Days 1 and 8, at 196 mg/m^2): One DLT occurred on Schedule C at 196 mg/m^2 (reversible Grade 3 renal failure) | DLTs ([3]; Schedule A: Days 1, 3, 5, at 78 mg/m^2): Two DLTs occurred at 78 mg/m^2 (multi-organ failure and reversible elevation of ALT) | Kind of DLTs [3, 5]: lactic acidosis and hypotension, GI necrosis, and acute renal failure | Number of DLTs [3, 5]: Four DLTs in three patients | MTD (maximum tolerated dose) ([3]; Schedule B: Days 1, 4, 8, 11 of 21-day cycle, AML, MDS): 83 mg/m^2 | Findings: Prolonged stable disease in (tumor, cycles) ([4]; Schedule A: Days 1, 4, 8, 11): Melanoma (5, 6, 6, 6, 10, 12 cycles) | Findings: Prolonged stable disease in (tumor, cycles) ([4]; Schedule B: Days 1, 8, 15): Melanoma (11+ cycles) | Number of DLTs ([4]; in vivo): two DLTs have occurred
